Test results reported in PubChem BioAssay (NCI).
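96-well plates; 48 h exposure; 5 concentrations. Endpoints by linear interpolation between flanking doses. Not reached: highest tested concentration assigned. GI50 is the concentration that inhibits growth by half. TGI: total growth inhibition.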

Columns and labels:
Experiment in all cases: DTP human tumour cell line panel, 48 h
SF-268 CNS = test system: SF-268 CNS
SN12C renal = test system: SN12C renal
IGROV1 ovarian = test system: IGROV1 ovarian
CCRF-CEM leukemia = test system: CCRF-CEM leukemia
A498 renal = test system: A498 renal
HOP-62 NSCLC = test system: HOP-62 NSCLC
SNB-19 CNS = test system: SNB-19 CNS
UACC-62 melanoma = test system: UACC-62 melanoma
NCI-H23 lung = test system: NCI-H23 lung
RPMI-8226 leukemia = test system: RPMI-8226 leukemia
SK-MEL-2 melanoma = test system: SK-MEL-2 melanoma
U251 CNS = test system: U251 CNS
NCI/ADR-RES ovarian = test system: NCI/ADR-RES ovarian
HCT-116 colon = test system: HCT-116 colon
SK-MEL-28 melanoma = test system: SK-MEL-28 melanoma
SW-620 colon = test system: SW-620 colon
OVCAR-3 ovarian = test system: OVCAR-3 ovarian
HCT-15 colon = test system: HCT-15 colon
MALME-3M melanoma = test system: MALME-3M melanoma
KM12 colon = test system: KM12 colon
HL-60(TB) leukemia = test system: HL-60(TB) leukemia
MDA-MB-435 = test system: MDA-MB-435
NCI-H522 lung = test system: NCI-H522 lung
HT29 colon = test system: HT29 colon
COLO 205 colon = test system: COLO 205 colon
SR leukemia = test system: SR leukemia
BT-549 breast = test system: BT-549 breast
SF-539 CNS = test system: SF-539 CNS
OVCAR-8 ovarian = test system: OVCAR-8 ovarian
LOX IMVI melanoma = test system: LOX IMVI melanoma
ACHN renal = test system: ACHN renal
HS 578T breast = test system: HS 578T breast
DU-145 prostate = test system: DU-145 prostate
OVCAR-4 ovarian = test system: OVCAR-4 ovarian
OVCAR-5 ovarian = test system: OVCAR-5 ovarian
MCF7 breast = test system: MCF7 breast
SK-MEL-5 melanoma = test system: SK-MEL-5 melanoma
T-47D breast = test system: T-47D breast
MDA-MB-231 breast = test system: MDA-MB-231 breast
SF-295 CNS = test system: SF-295 CNS
NCI-H226 lung = test system: NCI-H226 lung
EKVX NSCLC = test system: EKVX NSCLC
PC-3 prostate = test system: PC-3 prostate
HCC-2998 colon = test system: HCC-2998 colon
786-0 renal = test system: 786-0 renal
A549 NSCLC = test system: A549 NSCLC
MOLT-4 leukemia = test system: MOLT-4 leukemia
HOP-92 NSCLC = test system: HOP-92 NSCLC
UACC-257 melanoma = test system: UACC-257 melanoma
SK-OV-3 ovarian = test system: SK-OV-3 ovarian
SNB-75 CNS = test system: SNB-75 CNS
NCI-H460 lung = test system: NCI-H460 lung
M14 melanoma = test system: M14 melanoma
TK-10 renal = test system: TK-10 renal
CAKI-1 renal = test system: CAKI-1 renal
K-562 leukemia = test system: K-562 leukemia

Work on `Cc1nc(N)sc1-c1csc(Nc2ccc(C(F)(F)F)cc2)n1` yielded a GI50 (SF-268 CNS) of 6.75 µM, a TGI (SF-268 CNS) of 22.6 µM and a GI50 (SN12C renal) of 6.72 µM. The TGI (SN12C renal) was 21 µM, the GI50 (IGROV1 ovarian) was 2.01 µM and the TGI (IGROV1 ovarian) was 14.7 µM. The GI50 (CCRF-CEM leukemia) was 3.22 µM, the TGI (CCRF-CEM leukemia) was 53 µM and the GI50 (A498 renal) was 11.9 µM. For the same compound, the TGI (A498 renal) was 25.1 µM, the GI50 (HOP-62 NSCLC) was 7.86 µM and the TGI (HOP-62 NSCLC) was 26.4 µM. For the same compound, the GI50 (SNB-19 CNS) was 11.9 µM, the TGI (SNB-19 CNS) was 24.8 µM and the GI50 (UACC-62 melanoma) was 8.61 µM. It also gave a TGI (UACC-62 melanoma) of 21 µM, a GI50 (NCI-H23 lung) of 5.57 µM and a TGI (NCI-H23 lung) of 21.7 µM. It also gave a GI50 (RPMI-8226 leukemia) of 3.98 µM, a TGI (RPMI-8226 leukemia) of 72.3 µM and a GI50 (SK-MEL-2 melanoma) of 1.76 µM. For the same compound, the TGI (SK-MEL-2 melanoma) was 16.4 µM, the GI50 (U251 CNS) was 7.17 µM and the TGI (U251 CNS) was 26.2 µM. It also gave a GI50 (NCI/ADR-RES ovarian) of 5.36 µM, a TGI (NCI/ADR-RES ovarian) of 21 µM and a GI50 (HCT-116 colon) of 3.36 µM. It also gave a TGI (HCT-116 colon) of 16 µM, a GI50 (SK-MEL-28 melanoma) of 10.2 µM and a TGI (SK-MEL-28 melanoma) of 21.9 µM. The GI50 (SW-620 colon) was 4.92 µM, the TGI (SW-620 colon) was 19.5 µM and the GI50 (OVCAR-3 ovarian) was 4.41 µM. It also gave a TGI (OVCAR-3 ovarian) of 17.3 µM, a GI50 (HCT-15 colon) of 3.02 µM and a TGI (HCT-15 colon) of 11.9 µM. It also gave a GI50 (MALME-3M melanoma) of 4.11 µM, a TGI (MALME-3M melanoma) of 17.6 µM and a GI50 (KM12 colon) of 3.55 µM. The TGI (KM12 colon) was 14.5 µM, the GI50 (HL-60(TB) leukemia) was 13.2 µM and the TGI (HL-60(TB) leukemia) was 32.2 µM. The GI50 (MDA-MB-435) was 4.43 µM, the TGI (MDA-MB-435) was 17.4 µM and the GI50 (NCI-H522 lung) was 4.75 µM. It also gave a TGI (NCI-H522 lung) of 18.7 µM, a GI50 (HT29 colon) of 2.49 µM and a TGI (HT29 colon) of 7.09 µM. It also gave a GI50 (COLO 205 colon) of 11.9 µM, a TGI (COLO 205 colon) of 36.9 µM and a GI50 (SR leukemia) of 3.6 µM. It also gave a TGI (SR leukemia) of 24.2 µM, a GI50 (BT-549 breast) of 2.03 µM and a TGI (BT-549 breast) of 6.75 µM. The GI50 (SF-539 CNS) was 6.69 µM, the TGI (SF-539 CNS) was 20 µM and the GI50 (OVCAR-8 ovarian) was 11.1 µM. It also gave a TGI (OVCAR-8 ovarian) of 25.6 µM, a GI50 (LOX IMVI melanoma) of 2.44 µM and a TGI (LOX IMVI melanoma) of 9.9 µM. For the same compound, the GI50 (ACHN renal) was 2.75 µM, the TGI (ACHN renal) was 13.9 µM and the GI50 (HS 578T breast) was 2.84 µM. It also gave a TGI (HS 578T breast) of 23.6 µM, a GI50 (DU-145 prostate) of 4.59 µM and a TGI (DU-145 prostate) of 17.7 µM. It also gave a GI50 (OVCAR-4 ovarian) of 3.63 µM, a TGI (OVCAR-4 ovarian) of 16.7 µM and a GI50 (OVCAR-5 ovarian) of 4.42 µM. The TGI (OVCAR-5 ovarian) was 18.9 µM, the GI50 (MCF7 breast) was 2.65 µM and the TGI (MCF7 breast) was 16 µM. For the same compound, the GI50 (SK-MEL-5 melanoma) was 3.32 µM, the TGI (SK-MEL-5 melanoma) was 11.9 µM and the GI50 (T-47D breast) was 1.65 µM. It also gave a TGI (T-47D breast) of 10.1 µM, a GI50 (MDA-MB-231 breast) of 3.45 µM and a TGI (MDA-MB-231 breast) of 17.5 µM. It also gave a GI50 (SF-295 CNS) of 3.08 µM, a TGI (SF-295 CNS) of 15.1 µM and a GI50 (NCI-H226 lung) of 2.72 µM. It also gave a TGI (NCI-H226 lung) of 24.3 µM, a GI50 (EKVX NSCLC) of 3.83 µM and a TGI (EKVX NSCLC) of 17.6 µM. For the same compound, the GI50 (PC-3 prostate) was 4.12 µM, the TGI (PC-3 prostate) was 22.2 µM and the GI50 (HCC-2998 colon) was 4.66 µM. The TGI (HCC-2998 colon) was 17.3 µM, the GI50 (786-0 renal) was 4.41 µM and the TGI (786-0 renal) was 17.5 µM. The GI50 (A549 NSCLC) was 7.34 µM, the TGI (A549 NSCLC) was 35.8 µM and the GI50 (MOLT-4 leukemia) was 2.71 µM. It also gave a TGI (MOLT-4 leukemia) of 21.1 µM, a GI50 (HOP-92 NSCLC) of 2.63 µM and a TGI (HOP-92 NSCLC) of 15 µM. For the same compound, the GI50 (UACC-257 melanoma) was 9.37 µM, the TGI (UACC-257 melanoma) was 22.1 µM and the GI50 (SK-OV-3 ovarian) was 16.4 µM. It also gave a TGI (SK-OV-3 ovarian) of 33.4 µM, a GI50 (SNB-75 CNS) of 3.41 µM and a TGI (SNB-75 CNS) of 16.9 µM. For the same compound, the GI50 (NCI-H460 lung) was 3.44 µM, the TGI (NCI-H460 lung) was 15.7 µM and the GI50 (M14 melanoma) was 3.25 µM. It also gave a TGI (M14 melanoma) of 14.8 µM, a GI50 (TK-10 renal) of 8.73 µM and a TGI (TK-10 renal) of 21.4 µM. It also gave a GI50 (CAKI-1 renal) of 3.62 µM, a TGI (CAKI-1 renal) of 17.5 µM and a GI50 (K-562 leukemia) of 3.27 µM. For the same compound, the TGI (K-562 leukemia) was 31 µM.
